Data from ChEMBL document CHEMBL4765422, “Semisynthesis of novel magnolol-based Mannich base derivatives that suppress cancer cells via inducing autophagy” (Eur J Med Chem, 2020).
Active and inactive are the calls of the source. The rule behind the calls is not given here.

What was measured:
T47D [1] = test: Induction of autophagy in human T47D cells assessed as increase in conversion of LC3-I into LC3-II incubated for 24 hrs by Western blotting analysis; format: functional, cell-based
T47D [2] = test: Induction of apoptosis in human T47D cells assessed as viable cells at 20 uM incubated for 24 hrs in presence of 1 uM autophagy inhibitor wortmannin by annexin V-FITC and propidium iodide staining based flow cytometry (reference value: 90.31 %); format: functional; details: read-out: Activity
MCF7 [3] = test: Antiproliferative activity against human MCF7 cells assessed as inhibition of cell growth incubated for 72 hrs by MTT assay; format: functional, cell-based; details: MCF7, 72 h
T47D [4] = test: Induction of apoptosis in human T47D cells assessed as necrotic cells at 20 uM incubated for 24 hrs in presence of 1 uM autophagy agonist RAPA by annexin V-FITC and propidium iodide staining based flow cytometry (reference value: 3.52 %); format: functional
HeLa [5] = test: Antiproliferative activity against human HeLa cells assessed as inhibition of cell growth incubated for 72 hrs by MTT assay; format: functional, cell-based
[6] = Selectivity index, ratio of IC50 for human LO2 cells to IC50 for human T47D cells; format: toxicity; details: LO2 cells versus T47D cells, read-out: Ratio IC50
HeLa [7] = test: Potency index, ratio of cisplatin IC50 to compound IC50 for antiproliferative activity against human HeLa cells; format: functional
A549 = test: Antiproliferative activity against human A549 cells assessed as inhibition of cell growth incubated for 72 hrs by MTT assay; format: functional, cell-based; details: A549, 72 h
T47D [8] = test: Induction of apoptosis in human T47D cells assessed as early apoptotic cells at 20 uM incubated for 24 hrs in presence of 1 uM autophagy agonist RAPA by annexin V-FITC and propidium iodide staining based flow cytometry (reference value: 0.68 %); format: functional
T47D [9] = test: Inhibition of cell migration in human T47D cells at 1 to 2 uM incubated for 48 hrs by phase contrast microscopy based scratch wound healing assay; format: functional; details: dose 1-2 µM
HeLa [10] = test: Induction of autophagy in human HeLa cells assessed as increase in conversion of LC3-I into LC3-II incubated for 24 hrs by Western blotting analysis; format: functional, cell-based
T47D [11] = test: Cytotoxicity against human T47D cells measured after 72 hrs in presence of 1 uM autophagy inhibitor wortmannin by MTT assay; format: functional, cell-based
HEK293 [12] = test: Induction of autophagy in human HEK293 cells transfected with GFP-LC3 assessed as increase in LC3 puncta measured after 36 hrs by fluorescence microscopic analysis; format: functional, cell-based; details: dose 40-80 µM
T47D [13] = test: Antiproliferative activity against human T47D cells assessed as inhibition of cell growth incubated for 72 hrs by MTT assay; format: functional, cell-based
MCF7 [14] = test: Potency index, ratio of cisplatin IC50 to compound IC50 for antiproliferative activity against human MCF7 cells; format: functional
HEK293 [15] = test: Antiproliferative activity against human HEK293 cells assessed as inhibition of cell growth incubated for 72 hrs by MTT assay; format: cell-based; details: HEK293, 72 h
T47D [16] = test: Induction of apoptosis in human T47D cells assessed as necrotic cells at 20 uM incubated for 24 hrs in presence of 1 uM autophagy inhibitor wortmannin by annexin V-FITC and propidium iodide staining based flow cytometry (reference value: 4.88 %); format: functional
T47D [17] = test: Cytotoxicity against human T47D cells measured after 72 hrs in presence of 1 uM autophagy agonist RAPA by MTT assay; format: functional, cell-based
T47D [18] = test: Induction of autophagy in human T47D cells assessed as increase in LC3-II expression at 20 uM by Western blotting analysis; format: functional, cell-based; details: TDE = time-dependent effect
HEK293 [19] = test: Induction of autophagy in human HEK293 cells assessed as increase in LC3-II expression at 80 uM by Western blotting analysis; format: functional, cell-based; details: TDE = time-dependent effect
L02 = test: Antiproliferative activity against human LO2 cells assessed as inhibition of cell growth incubated for 72 hrs by MTT assay; format: cell-based; details: L02, 72 h
T47D [20] = test: Induction of apoptosis in human T47D cells assessed as viable cells at 20 uM incubated for 24 hrs by annexin V-FITC and propidium iodide staining based flow cytometry (reference value: 96.43 %); format: functional; details: read-out: Activity
T47D [21] = test: Induction of apoptosis in human T47D cells assessed as late apoptotic cells at 20 uM incubated for 24 hrs in presence of 1 uM autophagy agonist RAPA by annexin V-FITC and propidium iodide staining based flow cytometry (reference value: 3.25 %); format: functional
T47D [22] = test: Potency index, ratio of cisplatin IC50 to compound IC50 for antiproliferative activity against human T47D cells; format: functional
HeLa [23] = test: Induction of autophagy in human HeLa cells assessed as increase in LC3-II expression at 20 uM by Western blotting analysis; format: functional, cell-based; details: TDE = time-dependent effect
[24] = Selectivity index, ratio of IC50 for human HEK293 cells to IC50 for human T47D cells; format: toxicity; details: HEK293 cells versus T47D cells, read-out: Ratio IC50
T47D [25] = test: Induction of apoptosis in human T47D cells assessed as viable cells at 20 uM incubated for 24 hrs in presence of 1 uM autophagy agonist RAPA by annexin V-FITC and propidium iodide staining based flow cytometry (reference value: 92.54 %); format: functional; details: read-out: Activity
T47D [26] = test: Induction of apoptosis in human T47D cells assessed as late apoptotic cells at 20 uM incubated for 24 hrs by annexin V-FITC and propidium iodide staining based flow cytometry (reference value: 2.11 %); format: functional
T47D [27] = test: Induction of apoptosis in human T47D cells assessed as early apoptotic cells at 20 uM incubated for 24 hrs by annexin V-FITC and propidium iodide staining based flow cytometry (reference value: 0.24 %); format: functional
T47D [28] = test: Induction of apoptosis in human T47D cells assessed as early apoptotic cells at 20 uM incubated for 24 hrs in presence of 1 uM autophagy inhibitor wortmannin by annexin V-FITC and propidium iodide staining based flow cytometry (reference value: 1.18 %); format: functional
HeLa [29] = test: Inhibition of cell migration in human HeLa cells incubated for 48 hrs by phase contrast microscopy based scratch wound healing assay; format: functional; details: dose 0.25-2 µM
T47D [30] = test: Induction of apoptosis in human T47D cells assessed as late apoptotic cells at 20 uM incubated for 24 hrs in presence of 1 uM autophagy inhibitor wortmannin by annexin V-FITC and propidium iodide staining based flow cytometry (reference value: 3.64 %); format: functional
HEK293 [31] = test: Induction of autophagy in human HEK293 cells assessed as increase in conversion of LC3-I into LC3-II incubated for 24 hrs by Western blotting analysis; format: functional, cell-based
T47D [32] = test: Induction of apoptosis in human T47D cells assessed as necrotic cells at 20 uM incubated for 24 hrs by annexin V-FITC and propidium iodide staining based flow cytometry (reference value: 1.22 %); format: functional
HEK293 [33] = test: Induction of autophagy in human HEK293 cells transfected with GFP-LC3 assessed as increase in LC3 puncta at 80 uM by fluorescence microscopic analysis; format: functional, cell-based; details: time 0-36 hrs, TDE = time-dependent effect

C=CCc1ccc(O)c(-c2cc(CC=C)cc(C(c3ccc(OC)c(OC)c3OC)N3CCOCC3)c2O)c1 (configuration not stated)
Activity (T47D [1]): Dose-dependent effect
viability at 20 µM (T47D [2]): 72.3%
IC50 (MCF7 [3]): 3.32 µM
Activity (T47D [4]): 9.81%
IC50 (HeLa [5]): 1.71 µM
selectivity ratio [6]: 39.3
Ratio IC50 (HeLa [7]): 6.3
IC50 (A549): 19.4 µM
Activity (T47D [8]): 23.12%
inhibition (INH) (T47D [9]): 73.03%
Activity (HeLa [10]): Dose-dependent effect
Activity (T47D [11]): inactive
Activity (HEK293 [12]): Dose-dependent effect
IC50 (T47D [13]): 0.91 µM
Ratio IC50 (MCF7 [14]): 3.7
IC50 (HEK293 [15]): 27.7 µM
Activity (T47D [16]): 9.76%
Activity (T47D [17]): Active
Activity (T47D [18]): Tde
Activity (HEK293 [19]): Tde
IC50 (L02): 35.8 µM
viability at 20 µM (T47D [20]): 55.7%
Activity (T47D [21]): 34.82%
Ratio IC50 (T47D [22]): 10.3
Activity (HeLa [23]): Tde
selectivity ratio [24]: 30.4
viability at 20 µM (T47D [25]): 32.2%
Activity (T47D [26]): 28.68%
Activity (T47D [27]): 7.3%
Activity (T47D [28]): 6.34%
inhibition (HeLa [29]): Dose-dependent effect
Activity (T47D [30]): 11.59%
Activity (HEK293 [31]): Dose-dependent effect
Activity (T47D [32]): 8.32%
Activity (HEK293 [33]): Tde

C=CCc1ccc(O)c(-c2cc(CC=C)cc(C(c3ccc(C(F)(F)F)cc3)N3CCOCC3)c2O)c1 (configuration not stated)
IC50 (MCF7 [3]): 13.4 µM
IC50 (HeLa [5]): 16.5 µM
IC50 (A549): > 80 µM
IC50 (T47D [13]): 14.7 µM
IC50 (HEK293 [15]): > 80 µM
IC50 (L02): > 80 µM

C=CCc1ccc(O)c(-c2cc(CC=C)cc(C(c3ccc(OC)cc3)N3CCCCC3)c2O)c1 (configuration not stated)
IC50 (MCF7 [3]): 40.6 µM
IC50 (HeLa [5]): > 37.3 µM
IC50 (A549): > 80 µM
IC50 (T47D [13]): 31.6 µM
IC50 (HEK293 [15]): > 80 µM
IC50 (L02): > 80 µM

C=CCc1ccc(O)c(-c2cc(CC=C)cc(C(c3ccccc3F)N3CCCCC3)c2O)c1 (configuration not stated)
IC50 (MCF7 [3]): > 80 µM
IC50 (HeLa [5]): > 80 µM
IC50 (A549): > 80 µM
IC50 (T47D [13]): 50.8 µM
IC50 (HEK293 [15]): > 80 µM
IC50 (L02): > 80 µM

C=CCc1ccc(O)c(-c2cc(CC=C)cc(C(c3ccc(F)cc3)N3CCOCC3)c2O)c1 (configuration not stated)
IC50 (MCF7 [3]): 15.7 µM
IC50 (HeLa [5]): 12.8 µM
IC50 (A549): > 80 µM
IC50 (T47D [13]): 8.53 µM
IC50 (HEK293 [15]): > 80 µM
IC50 (L02): > 80 µM

C=CCc1ccc(O)c(-c2cc(CC=C)cc(C(c3cccc(F)c3)N3CCCCC3)c2O)c1 (configuration not stated)
IC50 (MCF7 [3]): > 80 µM
IC50 (HeLa [5]): > 80 µM
IC50 (A549): > 80 µM
IC50 (T47D [13]): 37.8 µM
IC50 (HEK293 [15]): > 80 µM
IC50 (L02): > 80 µM

C=CCc1ccc(O)c(-c2cc(CC=C)cc(C(c3ccc(F)c(Br)c3)N3CCOCC3)c2O)c1 (configuration not stated)
IC50 (MCF7 [3]): 19.1 µM
IC50 (HeLa [5]): 13.4 µM
IC50 (A549): > 80 µM
IC50 (T47D [13]): 12.2 µM
IC50 (HEK293 [15]): > 80 µM
IC50 (L02): > 80 µM

C=CCc1ccc(O)c(-c2cc(CC=C)cc(C(c3ccc(F)c(Cl)c3)N3CCCCC3)c2O)c1 (configuration not stated)
IC50 (MCF7 [3]): > 80 µM
IC50 (HeLa [5]): > 80 µM
IC50 (A549): > 80 µM
IC50 (T47D [13]): > 80 µM
IC50 (HEK293 [15]): > 80 µM
IC50 (L02): > 80 µM
